Experimental data as given in US20250049708A1, “A TOPICAL GEL FORMULATION FOR SKIN AND MOUTH DISORDERS AND A PROCESS OF PREPARATION THEREOF” (priority 2021, published 2025).

How the values were obtained:
Type in all cases: in vivo, male BALB/c mice
[1] = system: TNF-α; assay: tongue and serum TNF-α levels in mice with oral mucositis (mouse TNF-α ELISA kit); settings: 5-FU + scratch mice
Method: (§1) The in vivo pharmacological assessment of anti-mucositis activity of the topical or oromucosal gel formulation in male BALB/c mice was performed. The study protocol involves six BALB/c mice namely vehicle, 5-Fluorouracil (FU) group, 5 FU-group+Scratching, FU-group+Scratching, FU-group+Scratching+100 ug gel and FU-group+Scratching+30 ug respectively were maintained under specific pathogen-free conditions. The mice were 6-8 weeks of age and weighed 25-30 g. All animal experimental procedures were performed in accordance with the Institutional Animal Ethics Committee (IAEC) guidelines along with approval from IAEC.
(§2) The anti-mucositis study protocol involves mice that are intraperitoneally administered with 5-FU at 100 mg/kg on day 0. The scratching group of mice was anesthetized with isoflurane and an area of 0.5 cm^2 of the tongue was scratched using the tip of an 18-gauge needle at an equal force and depth on days 7 and 8. […]
(§3) The levels of biomarkers such as IL-6 and TNF-α were analyzed in mice upon treatment with topical or oromucosal gel formulation. The concentrations of these biomarkers in serum and tongue were analyzed using standard ELISA kits.
The tongue and serum concentrations of TNF-α were analyzed in mice with oral mucositis upon treatment with topical or oromucosal gel formulation. The concentrations of TNF-α in tongue and serum were analyzed using mouse TNF-α ELISA kit.

[2] = system: IL-6; assay: tongue and serum IL-6 levels in mice with oral mucositis (mouse IL-6 ELISA kit); settings: 5-FU + scratch mice
Method: as §1, §2, §3
The tongue and serum concentrations of IL-6 were analyzed in mice with oral mucositis upon treatment with topical or oromucosal gel formulation. The concentrations of IL-6 in tongue and serum were analyzed using mouse IL-6 ELISA kit.

[3] = system: oral mucositis; assay: anti-mucositis activity (mucositis score) in mice with 5-FU + tongue scratching induced oral mucositis; settings: score 0-5
Method: as §1
The activity of misoprostol of the topical or oromucosal gel formulation was analyzed for anti-mucositis in mice. The anti-mucositis activity is analyzed based on the mucositis score. The scoring parameters for anti-mucositis activity include erythema, vasodilation, erosion, bleeding, fibrosis, and ulcers.
A scoring method is adopted for oral mucositis induced by radiation and chemotherapy. The scoring evaluates the relationship between dosage, delivery method and complications. The Scoring systems are useful in assessing the impact of therapy on patient. […]
FIG. 5 illustrates the effect of topical or oromucosal gel formulation in mice with oral mucositis. The mucositis score was evaluated for 6 groups of mice (G1-G6) over a period of 15 days.

[4] = body weights of mice with oral mucositis over 15 days; settings: 5-FU + scratch mice; period of 15 days
Method: as §1
The anti-mucositis study protocol involves mice that are intraperitoneally administered with 5-FU at 100 mg/kg on day 0. The scratching group of mice was anesthetized with isoflurane and an area of 0.5 cm^2 of the tongue was scratched using the tip of an 18-gauge needle at an equal force and depth on days 7 and 8. The scratching was blinded to the treatment groups. Dexamethasone was administered orally at 1 mg/kg/day from on day 7.
The body weights of mice with oral mucositis upon treatment with topical or oromucosal gel formulation were analyzed for a period of 15 days.

Which “serum TNF-α mean concentration” value ([1]; serum) does the source give for `C[C@@H]1C[C@H]2[C@@H]3CCC4=CC(=O)C=C[C@]4(C)[C@@]3(F)[C@@H](O)C[C@]2(C)[C@@]1(O)C(=O)CO` [Dexamethasone] here?
The value was 3.32.

What about the “tongue TNF-α mean concentration” value ([1]; tongue) of the same compound?
The value was 20.07.

And the “serum IL-6 mean concentration” value ([2]; serum)?
Its value is 6.91.

What about the “tongue IL-6 mean concentration” value ([2]; tongue) of the same compound?
Its value is 44.20.

And the “mucositis score reached in the increase phase” value ([3]; 5-FU 100 mg/kg i.p. day 0 + tongue scratch days 7 and 8, increase till day 8)?
Its value is 3.

What about the “mucositis score after decrease over the remaining days” value ([3]; 5-FU + scratch, end of 15 day period) of the same compound?
The value was 1.

And the body weight course [4]?
The body weight course was “decrease in weight for 8 days and gradually increases over the remaining 7 days”.
